In PubChem BioAssay AID2060609 (Molecular Pharmacology Branch, DTP, NCI, 2025):
Several values for one entry are separate records, joined by “and”; a condition that tells them apart may be missing. Identical values can stand only once.

System: 855422-203-R-J1-PDC complex spheroids, viability
Experiment: Anticancer human tumor 855422-203-R-J1-PDC patient-derived bladder carcinoma cell line growth inhibition [CLK]
Conditions: for viability, T/C: stronger effect = lower value; for IC50: curve of compound
From the text: A high-throughput screen of multi-cell type tumor spheroids was designed to identify active combinations of […] and targeted small molecules. Complex spheroids include a stromal component modeled by human endothelial cells (HUVEC) and fibroblasts modeled by human mesenchymal stem cells (MSCs). The concentration ranges selected for each drug and investigational agent were based upon clinically achievable concentrations if the clinical Cmax of the agent was known.
Compounds. The drugs and investigational agents: cirtuvivint (SM08502; NSC835563), CC-671 (NSC850746), vemurafenib (NSC761431), tapotoclax (NSC804041), sotorasib (NSC818433), adagrasib (NSC831453), MRTX-1133 (NSC836407), BAY2416964 (NSC825713), copanlisib (NSC816437), inavolisib (NSC800729), abemaciclib (NSC768073), osimertinib (NSC779217), entinostat (NSC756642), eltanexor (KPT-8602, NSC794443), venetoclax (NSC766270), ceralasertib (NSC777638), bortezomib (NSC756655), olaparib (NSC753686), talazoparib (NSC767125), alisertib (NSC759677), peposertib (NSC802822), gemcitabine (NSC613327), 5-fluorouracil (NSC19893), SN-38 (NSC673596), oxaliplatin (NSC266046), paclitaxel (NSC125973), and doxorubicin (NSC123127), were obtained from the National Cancer Institute (NCI) Developmental Therapeutics Program Chemical Repository. The FDA-approved anticancer drug set is available from the Developmental Therapeutics Program at https://dtp.cancer.gov/organization/dscb/obtaining/available plates.htm. […] The stock solutions were prepared in dimethyl sulfoxide (DMSO, Sigma-Aldrich, St. Louis, MO, cat. D2650), except for the platinum complexes which were prepared in saline (Quality Biological, Gaithersburg, MD, cat. 114-055-101), at 800-fold the tested concentration and stored at -70 degrees C prior to their use. All drugs and investigational agents were tested over a range starting from a high concentration at or near the clinical Cmax and decreasing in half-log increments. If the clinical Cmax for an agent had not been determined, the highest concentration tested was 10 microM.
Cell Culture. All cells were maintained in an incubator at 37 degrees C and 5% CO2 with 95% humidity. The PDC lines were cultured according to standard operating procedures established by the NCI PDMR. Briefly, all PDCs were thawed and cultured in Matrigel-coated flasks prepared with a working solution of 1X Ham's F-12 nutrient mix, without supplementation (Invitrogen, Waltham, MA, cat. 11765054), 100 U/mL penicillin-streptomycin (Invitrogen, cat. 15140122), and 2.5% Matrigel (Corning Inc., Corning, NY, cat. 354248) for the first three passages. The 947758-054-R-J2-PDC line was cultured in 6B/Colon 1A media, which includes advanced DMEM/F-12 (Thermo Fisher Scientific, cat. 12634028), 10 mM HEPES (Thermo Fisher Scientific, cat. 15630080), 1X GlutaMAX supplement (Thermo Fisher Scientific, cat. 35050061), 0.1 mg/mL primocin (InvivoGen, cat. ant-pm-2), 10% defined fetal bovine serum, heat inactivated (HyClone Laboratories Inc., cat. SH30070.03HI), 1.25 mM N-Acetyl-L-cysteine (Sigma-Aldrich, cat. A9165), 10 mM nicotinamide (Sigma-Aldrich, cat. N0636), 1X B-27 supplement (Thermo Fisher Scientific, cat. 17504044), 1X N-2 supplement (Thermo Fisher Scientific, cat. 17502048), and 10 microM Y-27632 dihydrochloride (Tocris Bioscience, cat. 1254). The 876862-298-R-J1-PDC was cultured in 6E media, which includes all 6B/Colon 1A media components plus 50% L-WRN conditioned media (ATCC, cat. CRL-3276), 50 ng/mL recombinant human EGF recombinant protein (hEGF; Thermo Fisher Scientific, cat. PHG0311), 10 ng/mL recombinant human fibroblast growth factor 10 (hGFG-10; PeproTech, cat. 100-26), 1 ng/mL recombinant human fibroblast growth factor 2 (hFGF-2; PeproTech, cat. 100-18B), and 1 µM prostaglandin E2 (PGE2; Tocris, cat. 2296). The 227483-062-R1-J1-PDC line was cultured in Panc media, containing all 6E components except hFGF-2, with the addition of 500 nM SB-431542 (Selleckchem, cat. S1067) and 10 nM gastrin (Tocris, cat. 3006). […]
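Note: spheroids exposed to drugs for seven days before readout.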
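Throughout, for viability, T/C: 100% = DMSO vehicle control wells.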

Compound	IC50	viability, T/C (compound 0.00316 µM)	viability, T/C (compound 0.01 µM)	viability, T/C (compound 0.0316 µM)	viability, T/C (compound 0.1 µM)	viability, T/C (compound 0.316 µM)	viability, T/C (compound 1 µM)	viability, T/C (compound 3.16 µM)	viability, T/C (compound 10 µM)	viability, T/C (compound 0.000316 µM)	viability, T/C (compound 0.001 µM)	viability, T/C (compound 0.00949 µM)	viability, T/C (compound 0.03 µM)	viability, T/C (compound 0.0949 µM)	viability, T/C (compound 0.3 µM)	viability, T/C (compound 0.949 µM)	viability, T/C (compound 3 µM)
CCN1CCN(Cc2ccc(Nc3ncc(F)c(-c4cc(F)c5nc(C)n(C(C)C)c5c4)n3)nc2)CC1	> 1000 nM and 778 nM	99.2% and 123%	85.2% and 96.2%	79.4% and 92.5%	55.2% and 50%	50.4% and 57.6%	62.8% and 49.6%										
COC1C=CCC(C)C(C)S(=O)(=O)NC(=O)c2ccc3c(c2)N(CC2CCC21)CC1(CCCc2cc(Cl)ccc21)CO3 (configuration not stated)	6060 nM and 8070 nM			96% and 134%	105% and 90.2%	111% and 128%	103% and 137%	119% and 191%	6.05% and 30.3%								
COc1c(OCCCN2CCOCC2)ccc2c3n(c(=NC(=O)c4cnc(N)nc4)nc12)CCN3	14.1 nM and 12.1 nM	86% and 84.6%	55.7% and 52.6%	35.4% and 31.9%	12.5% and 11%	4.09% and 3.82%	2.57% and 1.98%										
NC(=O)C(=Cn1cnc(-c2cc(C(F)(F)F)cc(C(F)(F)F)c2)n1)c1cncnc1	71.7 nM and 72.3 nM											133% and 162%	110% and 130%	30.4% and 25.3%	11.7% and 9.71%	10.5% and 7.35%	4.97% and 5%
Nc1ccccc1NC(=O)c1ccc(CNC(=O)OCc2cccnc2)cc1	1360 nM and 1140 nM			81.5% and 97.5%	72.8% and 73.2%	75.6% and 75%	60.6% and 54.4%	21.2% and 28.1%	2.46% and 1.54%								
Nc1ccn(C2OC(CO)C(O)C2(F)F)c(=O)n1 (configuration not stated)	< 31.6 nM			26.9% and 25.7%	16.5% and 10.8%	17.8% and 15.2%	15.7% and 11.5%	11.1% and 9.45%	7.67% and 6.64%								
O=C(c1cc(Cc2n[nH]c(=O)c3ccccc23)ccc1F)N1CCN(C(=O)C2CC2)CC1	> 10000 nM			118% and 121%	91.3% and 115%	110% and 104%	112% and 120%	119% and 130%	101% and 138%								

Further lines, with some results ahead:

IC50	Compound	viability, T/C (compound 0.00316 µM)	viability, T/C (compound 0.01 µM)	viability, T/C (compound 0.0316 µM)	viability, T/C (compound 0.1 µM)	viability, T/C (compound 0.316 µM)	viability, T/C (compound 1 µM)	viability, T/C (compound 3.16 µM)	viability, T/C (compound 10 µM)	viability, T/C (compound 0.000316 µM)	viability, T/C (compound 0.001 µM)	viability, T/C (compound 0.00949 µM)	viability, T/C (compound 0.03 µM)	viability, T/C (compound 0.0949 µM)	viability, T/C (compound 0.3 µM)	viability, T/C (compound 0.949 µM)	viability, T/C (compound 3 µM)
6.21 nM and 6.32 nM	CCc1c2c(nc3ccc(O)cc13)-c1cc3c(c(=O)n1C2)COC(=O)[C@]3(O)CC	94.3% and 93.4%	16.8% and 20.4%	15.4% and 10.1%	5.45% and 6.24%	3.48% and 3.36%	1.87% and 2.42%										
< 31.6 nM	COc1cccc2c1C(=O)c1c(O)c3c(c(O)c1C2=O)CC(O)(C(=O)CO)CC3OC1CC(N)C(O)C(C)O1 (configuration not stated)			15.1% and 13.7%	2.91% and 1.62%	1.09% and 1.08%	1.18% and 0.23%	0.29% and 0.47%	0.19% and 0.46%								
> 100 nM	Cn1ncnc1[C@H]1c2n[nH]c(=O)c3cc(F)cc(c23)N[C@@H]1c1ccc(F)cc1	110% and 130%	113% and 102%	121% and 158%	110% and 141%					105% and 134%	97.5% and 96.9%						
2690 nM and 6240 nM	O=c1[nH]cc(F)c(=O)[nH]1			109% and 162%	103% and 123%	86.9% and 104%	60.5% and 74.4%	51.7% and 56%	40% and 45.8%								
